Laboratory results reported in patent US20210121527A1, “METHODS OF TREATING MINIMAL RESIDUAL CANCER” (ICAHN SCHOOL OF MEDICINE AT MOUNT SINAI, priority 2018, published 2021).

Assays:
[1] = tested on: Braf-mutant melanoma WM35 cells; assay: WM35 melanoma cell viability in 2D and 3D culture, GADD34 western blot; format: cell-based; conditions: after persistent treatment with Abemaciclib
Protocol: FIGS. 12A-12G show proposed mono or combination therapies that include the use of LY4 and experiments showing that the treatment of melanoma cells with the CDK4/6 inhibitor Abemaciclib in combination with LY4 differentially affects in vitro cell viability in 2D and 3D culture. FIG. 12A is a schematic illustration of the rationale for the combination of Abemaciclib and LY4. FIG. 12B is a bar graph showing the results of an in vitro treatment of Braf-mutant melanoma cells (WM35) with 0 nM, 10 nM, or 50 nM Abemaciclib for 1 week followed by 48 hour treatment with 2 μM LY4. FIG. 12C includes images of cells stained with DAPI following pre-treatment with Abemaciclib for 1 week, followed by treatment with 2 μM LY4. 5,000 cells were seeded on matrigel. In FIGS. 12D-12E, WM35 melanoma cells were pre-treated with Abemaciclib for 5 weeks, followed by treatment with LY4 in complete media and Abemaciclib. Cells were stained with Trypan blue to identify viable cells. FIG. 12D is a graph showing Abemaciclib sensitive cells. FIG. 12E is a graph showing Abemaciclib-resistant cells. FIG. 12F show images of cells stained with DAPI following pre-treatment with Abemaciclib for 5 weeks and co-treatment with 2 μM LY4 and Abemaciclib. 1,000 cells were seeded on matrigel. […]

[2] = tested on: HER2^+ metastases and DCCs; assay: Metastasis, CTC and DCC quantification in MMTV-HER2 mice; format: in vivo, mouse; conditions: 50 mpk i.p. daily, two weeks
Protocol: Mice, tumor growth, and tissue processing: The FVB/N-Tg (MMTVneu) mouse strain was obtained from Jackson Laboratories (Sacramento, Calif.). […] Before being used in any experiment, females underwent one round of pregnancy and at least two weeks of no lactation after weaning. Females between 24-32 weeks of age were injected intraperitoneally with vehicle (90% corn oil, 10% ethanol) or LY4 (50 mpk) daily, for two weeks. For the combination treatment, females 24-32 weeks of age were treated daily by oral gavage with Abemaciclib (50 mpk) for 4 weeks before starting the treatment described earlier with LY4. Tumor volumes were measured using the formula (Dxd^2)/2, where D is the longest and d is the shortest diameter. For CTC count, animals were anesthetized and whole blood was extracted by cardiac puncture. Mammary glands, lungs, and tumors were collected and fixed in 10% buffered formalin overnight before paraffin embedding. The bone marrow from the two lower limbs was flushed with a 26 G needle and further processed by Ficoll density gradient centrifugation. For CTC as well as for DTC detection in bone marrow, tissues were depleted of mature hematopoietic cells by anti-mouse antibody-labeled magnetic bead separation (Miltenyi Biotec, San Diego, Calif.) before fixation in formalin for 20 minutes at 4° C.
IHC and IF: IHC and IF from paraffin-embedded sections was performed as previously described (Avivar-Valderas et al., “Regulation of Autophagy during ECM Detachment is Linked to a Selective Inhibition of mTORC1 by PERK,” Oncogene 32(41):4932-40 (2013), which is hereby incorporated by reference in its entirety). Briefly, slides were dewaxed and serially rehydrated. Heat-induced antigen retrieval was performed in either citrate buffer (10 mM, pH 6), EDTA buffer (1 mM, pH 8), or Tris/EDTA (pH9). Slides were further permeabilized in 0.1% Triton™-X100, blocked and incubated with primary antibody overnight at 4° C. at 1:50-1:200 dilution. For IHC, an additional step of endogenous peroxidase and avidin/biotin quenching was performed before primary antibody incubation. […] Next, slides were incubated in secondary antibodies (Life Technologies, Norwalk, Conn.) and mounted. For IHC, sections were processed using VectaStain ABC Elite kit (Vector Laboratories, Bulingame, Calif.) and DAB Substrate kit for peroxidase labelling (Vector Laboratories) and mounted in VectaMount medium (Vector laboratories). For IF, sections were mounted in ProLong Gold Antifade aqueous medium (Thermo Fisher, Waltham, Mass.).
In the case of immunocytofluorescence, cytospins of fixed cells (100,000-200,000 cells/cytospin were prepared by cyto-centrifugation at 500 rpm for 3 minutes on poly-prep slides, and the staining protocol was performed as explained below from the permeabilization onward. For the staining of 3D cultures, acini were fixed in 4% PFA for 20 minutes at 4° C., permeabilized with 0.5% Triton™-X100 in PBS for 20 minutes at room temperature, washed in PBS-glycine, and then blocked with 10% normal goat serum for 1 hour at 37° C., before performing immunofluorescence staining.

[3] = tested on: MCF10A-HER2, ZR75.1, SKBR3; assay: 3D acini cultures in Matrigel, cleaved caspase-3 and P-histone H3; format: cell-based, human; conditions: 2 μM, 10 days
Protocol: Reagents, cell culture, and treatments: EGF was obtained from PeproTech (Rocky Hill, N.J.) and used at 100 ng/ml. Thapsigargin was from Sigma (St. Louis, Mo.) and used at 2 nM. The ZR75.1-H2B-Dendra2 cell line was generated by stable transfection of the H2B-Dendra2 plasmid (Gurskaya et al., “Engineering of a Monomeric Green-to-Red Photoactivatable Fluorescent Protein Induced by Blue Light,” Nat. Biotechnol. 24:461-465 (2006), which is hereby incorporated by reference in its entirety). For 3D cultures, MCF10A-HER2, SKBR3, and ZR75.1-H2B-Dendra2 cells were plated in growth factor-reduced Matrigel (Corning, Corning, N.Y.) and grown as described previously (Avivar-Valderas et al., “Regulation of Autophagy during ECM Detachment is Linked to a Selective Inhibition of mTORC1 by PERK,” Oncogene 32(41):4932-40 (2013), which is hereby incorporated by reference in its entirety). When referring to “low density,” 3,500 cells/8-well were seeded, and for “high density” 20,000 cells/8-well. Treatments with vehicle (DMSO) or LY4 (2 μM) were replaced every 24 hours for 2D and every 48 hours for 3D cultures. […]

## Cc1cc(NC(=O)[C@H](O)c2cc(F)cc(F)c2)ccc1-c1cnc(N)c(C(=O)NC(C)C)c1 [LY4, 2-amino-5-[4-[[(2R)-2-(3,5-difluorophenyl)-2-hydroxy-acetyl]amino]-2-methyl-phenyl]-N-isopropyl-pyridine-3-carboxamide]
[1]
  viability of Abemaciclib resistant WM35 cells, 3D: additive effect on decreasing viability in 3D cell culture
[2]
  HER2^+ circulating tumor cells in blood: no significant difference between vehicle and LY4-treated animals
  area of macro-metastases: without affecting the area of these metastases
  number and incidence of lung macro-metastases (>100 cells): reduced the number and the incidence of macro-metastases
  number of DCCs in bone marrow: significantly decreased the number of DCCs found in bone marrow
  number of P-Rb negative single DCCs in lung sections: strongly reduced the number of non-proliferating (P-Rb negative) single DCCs
  number of P-Rb positive solitary DTCs in lung: without affecting the number of P-Rb positive solitary DTCs
  number of lung micro-metastases (2-100 cells): significant decrease in the number of micro-metastases
[3]
  apoptosis (cleaved caspase-3) in 3D acini: significantly increased the levels of apoptosis (cleaved caspase-3)
  proliferation in 3D acini (phospho-histone H3): a significant change in the levels of proliferation as detected by phospho-histone H3 levels was not observed
